Results: patent EP0951284B1, “[…] DERIVATIVES” (priority 1996, dated 1998)
pIC50: −log10 of the molar value. Counter-ions that a name gives are not always drawn. Like-named read-outs stand apart in the source and are kept apart here.

What was measured:
MAO-B [1] = experiment: Inhibition of MAO activity ex vivo (brain tissue), PEA substrate; assay type: in vivo, mice; details: mouse brain tissue
Procedure: (§1) Male Sabra mice, weighing 45-50g were injected with test compound solutions (prepared in 0.9% saline). Each dose was administered to two or three mice. The mice were sacrificed two hours after drug administration or at a time corresponding to the peak AChE inhibition time (see Table 6). The brain and liver were rapidly dissected and stored in appropriate vials on ice. The tissues were weighed, diluted to 1/20 in sucrose 0.3M and stored at -20°C before performance of the MAO assay described above. The results given in Table 6 relate to measurements made on brain tissue only.

[2] = biological target: T1, Human erythrocyte acetylcholinesterase (Homo sapiens, UniProt P22303); experiment: In vitro measurement of acetylcholinesterase (AChE) inhibition (Ellman method); assay type: biochemical; details: at time of peak activity, incubation 15 to 60 minutes at 37°C
T1 construct: Human erythrocyte acetylcholinesterase (type XIII, Sigma Israel); purchased Sigma Israel type XIII; host or cells: human erythrocytes
Procedure: Human erythrocyte acetylcholinesterase (type XIII, Sigma Israel), was prepared in a stock solution of 1U/ml, containing Triton (1%) and bovine serum albumin (0.05%) in phosphate buffer (pH 8). The enzyme (0.05U) was incubated with 3-5 different concentrations of test compound (in triplicate) for periods of from 15 to 60 minutes at 37°C. […] The percentage inhibition of AChE by each concentration of drug is calculated by comparison with that of enzyme in the absence of drug.

MAO-A [3] = biological target: T2, MAO-A (Rattus norvegicus, UniProt P21396); experiment: Inhibition of MAO activity in vitro, rat brain homogenate, 5-HT substrate
T2 sequence (P21396 1-526): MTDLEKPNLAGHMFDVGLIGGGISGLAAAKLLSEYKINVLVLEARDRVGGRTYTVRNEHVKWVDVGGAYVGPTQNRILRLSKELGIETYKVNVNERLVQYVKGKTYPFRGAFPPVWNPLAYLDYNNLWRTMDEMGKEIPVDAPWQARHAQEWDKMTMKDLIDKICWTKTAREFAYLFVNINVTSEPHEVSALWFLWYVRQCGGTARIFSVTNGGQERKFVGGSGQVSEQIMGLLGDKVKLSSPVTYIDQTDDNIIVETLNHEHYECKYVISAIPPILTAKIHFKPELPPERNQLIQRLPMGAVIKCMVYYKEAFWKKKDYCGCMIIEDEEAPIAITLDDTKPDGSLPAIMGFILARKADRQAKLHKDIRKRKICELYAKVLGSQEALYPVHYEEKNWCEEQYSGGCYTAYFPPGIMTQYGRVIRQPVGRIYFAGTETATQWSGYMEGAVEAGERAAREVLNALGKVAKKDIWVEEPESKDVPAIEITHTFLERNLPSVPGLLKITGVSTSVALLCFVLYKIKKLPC
Procedure: (§2) The MAO enzyme source was a homogenate of rat brain in 0.3M sucrose, which was centrifuged at 600G for 15 minutes. The supernatant was diluted appropriately in 0.05M phosphate buffer, and pre-incubated with serial dilutions of test compounds for 20 minutes at 37°C. ^14C-Labeled substrates (2-phenylethylamine, hereinafter PEA; 5-hydroxytryptamine, hereinafter 5-HT) were then added, and the incubation continued for a further 20 minutes (PEA), or 30-45 minutes (5-HT). Substrate concentrations used were 50µM (PEA) and 1mM (5-HT). In the case of PEA, enzyme concentration was chosen so that not more than 10% of the substrate was metabolized during the course of the reaction. The deaminated products were extracted into toluene-ethyl acetate (1:1, v/v) containing 0.6% (w/v) 2,5-diphenyloxazole prior to determination by liquid scintillation counting. Radioactivity in the eluate indicates the production of neutral and acidic metabolites formed as a result of MAO activity. Activity of MAO in the sample was expressed as a percentage of control activity in the absence of inhibitors after subtraction of appropriate blank values The activity determined using PEA as substrate is referred to as MAO-B, and that determined using 5-HT as MAO-A.

whole brain AChE = biological target: T3, whole brain AChE (Mus musculus, UniProt P21836); experiment: Ex vivo measurement of brain AChE inhibition after sub-cutaneous administration; assay type: in vivo, mice; details: for ED50: sc, sub-cutaneous, mouse whole brain, at peak of activity, read-out: AChE Inhibition Ex vivo ED50 (AC)
T3 construct: the brains rapidly removed (minus cerebellum), weighed and homogenized in 0.1M phosphate buffer pH 8.0; from tissue; host or cells: mouse brain (minus cerebellum) homogenate supernatant
T3 sequence (P21836 32-614): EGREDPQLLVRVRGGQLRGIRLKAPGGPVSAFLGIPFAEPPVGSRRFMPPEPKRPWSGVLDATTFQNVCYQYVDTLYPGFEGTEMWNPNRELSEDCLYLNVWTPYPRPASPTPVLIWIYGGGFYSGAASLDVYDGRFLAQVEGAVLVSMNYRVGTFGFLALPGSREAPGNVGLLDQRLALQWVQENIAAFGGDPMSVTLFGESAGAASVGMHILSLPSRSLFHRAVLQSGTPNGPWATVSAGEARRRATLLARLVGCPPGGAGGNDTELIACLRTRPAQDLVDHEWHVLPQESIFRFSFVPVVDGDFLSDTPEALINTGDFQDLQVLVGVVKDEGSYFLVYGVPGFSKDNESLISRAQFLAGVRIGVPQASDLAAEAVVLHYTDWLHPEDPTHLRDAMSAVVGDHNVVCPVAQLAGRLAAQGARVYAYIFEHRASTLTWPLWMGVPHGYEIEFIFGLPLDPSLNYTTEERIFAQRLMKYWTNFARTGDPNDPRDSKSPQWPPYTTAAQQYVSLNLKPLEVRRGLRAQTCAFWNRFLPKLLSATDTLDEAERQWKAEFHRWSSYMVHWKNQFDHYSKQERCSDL
Procedure: Test drugs or saline were administered sub-cutaneously to male mice (Sabra strain, 28-35g). At least 4-5 mice were used per dose and a minimum of 3 doses per drug were tested. The mice were sacrificed 15, 30, 60, 70, 90, 120 or 180 minutes after drug administration, the brains rapidly removed (minus cerebellum), weighed and homogenized in 0.1M phosphate buffer pH 8.0, containing Triton (1mg/100g tissue) and centrifuged to remove cell debris. Aliquots (25 µl) of the supernatant were then incubated with acetylthiocholine and DTNB. AChE activity measured as described above. The % inhibition of whole brain AChE by each dose of drug was calculated by comparison with enzyme activity from 3 saline treated control mice run at the same time.

MAO-B [4] = biological target: T4, MAO-B (Rattus norvegicus, UniProt P19643); experiment: Inhibition of MAO activity in vitro, rat brain homogenate, PEA substrate; assay type: biochemical; parameters: The MAO enzyme source was a homogenate of rat brain in 0.3M sucrose; from tissue; host or cells: rat brain homogenate (600G supernatant); details: PEA 50µM
T4 sequence (P19643 1-520): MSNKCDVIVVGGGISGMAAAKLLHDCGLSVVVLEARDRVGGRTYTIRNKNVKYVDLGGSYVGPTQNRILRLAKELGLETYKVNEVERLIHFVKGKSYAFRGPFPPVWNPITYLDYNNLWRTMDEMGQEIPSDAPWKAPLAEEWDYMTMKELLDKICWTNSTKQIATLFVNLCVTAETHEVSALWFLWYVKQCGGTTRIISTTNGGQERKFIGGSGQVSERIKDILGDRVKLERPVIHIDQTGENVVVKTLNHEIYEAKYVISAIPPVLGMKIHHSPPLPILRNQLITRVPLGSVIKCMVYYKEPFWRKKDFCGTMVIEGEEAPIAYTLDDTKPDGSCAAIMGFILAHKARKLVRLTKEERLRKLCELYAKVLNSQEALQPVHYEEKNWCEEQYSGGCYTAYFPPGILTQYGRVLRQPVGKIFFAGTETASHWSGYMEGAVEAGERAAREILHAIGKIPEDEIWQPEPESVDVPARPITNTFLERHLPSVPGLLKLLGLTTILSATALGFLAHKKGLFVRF
Procedure: as §2

MAO-A [5] = experiment: Inhibition of MAO activity ex vivo (brain tissue), 5-HT substrate; assay type: in vivo, mice; details: mouse brain tissue
Procedure: as §1

[6] = Acute toxicity in mice (sub-cutaneous, lethality within 6 hours); details: mouse, in vivo, sc; for selectivity ratio: LD50 divided by ED50 (acetylcholine esterase ex vivo), read-out: Therapeutic Ratio (LD/AC); for LD50 at 6 h: sub-cutaneous, mice, within 6 hours
Procedure: Drugs were administered sub-cutaneously in at least 3 doses, to a minimum of 10 mice per dose. […] Therapeutic Ratio was calculated as LD50 divided by ED50(acetylcholine esterase ex vivo).

[7] = read-out: MAO-A Inhibition In vitro IC50, rat brain homogenate, 5-HT 1mM

T1 sequence (P22303 32-617 isoform P22303-2 limits assumed): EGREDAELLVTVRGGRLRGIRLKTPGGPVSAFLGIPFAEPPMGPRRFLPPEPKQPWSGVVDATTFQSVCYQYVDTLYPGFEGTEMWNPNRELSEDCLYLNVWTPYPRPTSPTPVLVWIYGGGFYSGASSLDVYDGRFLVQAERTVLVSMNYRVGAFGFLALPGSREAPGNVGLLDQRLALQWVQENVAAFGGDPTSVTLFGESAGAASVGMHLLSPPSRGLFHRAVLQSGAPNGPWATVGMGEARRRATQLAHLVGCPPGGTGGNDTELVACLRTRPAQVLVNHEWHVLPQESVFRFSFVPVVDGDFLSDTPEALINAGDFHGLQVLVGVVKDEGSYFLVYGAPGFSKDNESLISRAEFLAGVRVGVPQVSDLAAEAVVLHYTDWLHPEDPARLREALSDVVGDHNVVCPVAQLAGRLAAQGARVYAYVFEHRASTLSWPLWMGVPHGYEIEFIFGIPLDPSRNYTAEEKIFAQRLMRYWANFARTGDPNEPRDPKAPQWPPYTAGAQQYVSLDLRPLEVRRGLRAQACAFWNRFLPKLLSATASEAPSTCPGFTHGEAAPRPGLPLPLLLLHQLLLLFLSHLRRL

Row | SMILES | MAO-B Inhibition Ex vivo ED50 (MAO-B [1]) | pIC50 [2] | pIC50 (MAO-A [3]) | Time to peak activity t (whole brain AChE; AChE inhibition) | Time to return to 50% of peak t (whole brain AChE; AChE inhibition) | ED50 (whole brain AChE) | pIC50 (MAO-B [4]) | MAO-A Inhibition Ex vivo ED50 (MAO-A [5]) | selectivity ratio [6] | LD50 at 6 h [6] | pIC50 (MAO-A [3]; [7])
1 | C#CCNCCc1cccc(OC(=O)N(C)CC)c1 [Compound 13] | 50 µmol/kg | 4.52 | 5.48 | 30 to 90 min | 120 min | 53.8 µmol/kg | 5.08 | 75 µmol/kg | 8.5 | 458 µmol/kg | –
2 | C#CCNCCc1cccc(OC(=O)N(C)CCC)c1 [Compound 14] | 0.6 µmol/kg | 4.90 | – | 30 min | – | 100 µmol/kg | 6.52 | 4.5 µmol/kg | – | – | 5.74
3 | C#CCN(C)C(C)Cc1cccc(OC(=O)N(C)C)c1 (racemic) [Compound 20, (rac)-3-(N,N-dimethyl-carbamyloxy) -α-methyl-N'-methyl,N'-propargyl phenethylamine HCl] | 7 µmol/kg | 5.77 | 6.92 | – | – | 15 µmol/kg | 6.40 | 6 µmol/kg | 11.3 | 170 µmol/kg | –
4 | C#CCN(C)C(C)Cc1cccc(OC(=O)N(C)CC)c1 (stereo not shown) [Compound 21] | – | 3.64 | – | – | – | – | 6.70 | – | – | – | 6.92
5 | C#CCN(C)CCc1cccc(OC(=O)N(C)CC)c1 [Compound 15] | 35 µmol/kg | 4.17 | 6.00 | 30 min | – | 145 µmol/kg | 6.00 | 35 µmol/kg | 8.6 | 1250 µmol/kg | –
